The structures appear in SMILES notation. A value given as a limit tells only on which side of the number the result lay.

The values below come from ChEMBL document CHEMBL1131553, “Orally active indole N-oxide PDE4 inhibitors” (Bioorg Med Chem Lett, 1998).

Data set [1] deals with T1, Phosphodiesterase 4 (Homo sapiens, UniProt P27815+Q08499+Q07343+Q08493). The format is protein assay.
In data set [2] the test system is Mus musculus. As to the kind of experiment: In vivo inhibition of LPS induced tumor necrosis factor (TNF-alpha) in mice at 50 mg/kg. The format is functional.
The target of data set [3] is T1, Phosphodiesterase 4. As to the kind of experiment: Inhibition of phosphodiesterase type IV (PDE4) activity. The format is protein assay.
Data set [4] deals with Mus musculus. In words: In vivo inhibition of LPS induced tumor necrosis factor (TNF-alpha) in mice at 10 mg/kg. The format is functional.
Data set [5] deals with Mus musculus. In words: In vivo inhibition of LPS induced tumor necrosis factor (TNF-alpha) in mice. The format is functional.
The subject of data set [6] is Canis familiaris. In words: Emetic effect in dogs on intravenous dose (3/4). The following applies: Canis lupus familiaris. It is filed as functional.
The nature of data set [7]: Time taken to reach maximum concentration in plasma upon oral administration in mouse. The format is ADME, organism-based.
Data set [8] is described as follows: Value distribution upon iv administration in mouse. Particulars: in vivo, read-out: Vdss. The format is ADME, organism-based.
A short description of data set [9]: Area under curve by ioral administration in mouse. It is filed as ADME, organism-based. Particulars: in vivo, po.
A short description of data set [10]: Maximum concentration in plasma upon oral administration in mouse. The format is ADME, organism-based. Particulars: read-out: Cp max.
Data set [11] is described as follows: Area under curve by iv administration in mouse. The following applies: in vivo. It is filed as ADME, organism-based.
A short description of data set [12]: Plasma clearance value upon iv administration in mouse. The format is ADME, organism-based.
A short description of data set [13]: Oral bioavailability in mouse. The format is ADME, organism-based. The following applies: in vivo.
Data set [14] in a line: Half-life by iv administration in mouse. The format is ADME, organism-based. The following applies: in vivo.
Data set [15] in a line: Half-life by oral administration in mouse. The following applies: in vivo. It is filed as ADME, organism-based.
For data set [16], the system named is Canis familiaris. In words: Emetic effect in dogs on intravenous dose (0/4). The format is functional. The following applies: Canis lupus familiaris.
Data set [17] has as its system Rattus norvegicus. As to the kind of experiment: Percentage change in body weight of rats in streptococcal cell wall-washed arthritis model at 30.0 mg/kg peroral dose. It is filed as functional. The following applies: route oral.
Data set [18] concerns Rattus norvegicus. As to the kind of experiment: Percentage change in body weight of rats in streptococcal cell wall-washed arthritis model at 3.0 mg/kg peroral dose. It is filed as functional. Particulars: route oral.
Data set [19] deals with Rattus norvegicus. In words: Inhibition of streptococcal cell wall-washed arthritis model in rats at 30.0 mg/kg peroral dose. It is filed as functional. Particulars: route oral.
Data set [20] has as its system Rattus norvegicus. As to the kind of experiment: Inhibition of streptococcal cell wall-washed arthritis model in rats at 3.0 mg/kg peroral dose. It is filed as functional. The following applies: route oral.
Data set [21] deals with Rattus norvegicus. As to the kind of experiment: Streptococcal cell wall-washed arthritis model in rats at 3.0 mg/kg peroral dose. It is filed as functional. The following applies: route oral.
For data set [22], the system named is Rattus norvegicus. In words: Streptococcal cell wall-washed arthritis model in rats at 10.0 mg/kg peroral dose. It is filed as functional. Particulars: route oral.
Data set [23] has as its system Rattus norvegicus. As to the kind of experiment: Inhibition of streptococcal cell wall-washed arthritis model in rats at 10.0 mg/kg peroral dose. Particulars: route oral. The format is functional.
Data set [24] concerns Rattus norvegicus. In words: Streptococcal cell wall-washed arthritis model in rats at 30.0 mg/kg peroral dose. The format is functional. Particulars: route oral.
In data set [25] the test system is Rattus norvegicus. As to the kind of experiment: Percentage change in body weight of rats in streptococcal cell wall-washed arthritis model at 10.0 mg/kg peroral dose. It is filed as functional. Particulars: route oral.
The test system of data set [26] is Canis familiaris. In words: Emetic effect in dogs on intravenous dose (4/4). The format is functional. Particulars: Canis lupus familiaris.
The test system of data set [27] is Canis familiaris. In words: Emetic effect in dogs on intravenous dose (2/2). It is filed as functional. Particulars: Canis lupus familiaris.

`Cc1cn(Cc2ccc(S(C)(=O)=O)cc2)c2cc(C(=O)Nc3c(Cl)c[n+]([O-])cc3Cl)ccc12` had a Ki at Phosphodiesterase 4 [1] of 1124 nM. In addition, in the data set on Mus musculus [2], at 50 mg/kg the inhibition in vivo was 38%. Also, the IC50 on Phosphodiesterase 4 [3] was 260 nM.

`Cc1cn(CCCc2ccccc2)c2cc(C(=O)Nc3c(Cl)c[n+]([O-])cc3Cl)ccc12` displayed a Ki on Phosphodiesterase 4 [1] of 30 nM. Besides, in the data set with Mus musculus [2], the inhibition in vivo at 50 mg/kg is 34%. This compound had an IC50 against Phosphodiesterase 4 [3] of 7 nM.

`Cc1cn(Cc2ccc(C(=O)O)cc2)c2cc(C(=O)Nc3c(Cl)c[n+]([O-])cc3Cl)ccc12` came in with an inhibition constant Ki on Phosphodiesterase 4 [1] of 3184 nM. The compound further displayed an IC50 against Phosphodiesterase 4 [3] of 1400 nM.

`Cc1cn(C2CCCCC2)c2cc(C(=O)Nc3c(Cl)c[n+]([O-])cc3Cl)ccc12` had an inhibitory constant (Ki) on Phosphodiesterase 4 [1] of 38 nM. Besides, the IC50 on Phosphodiesterase 4 [3] is recorded as 19 nM.

On to `Cc1cn(CC2CCCCCC2)c2cc(C(=O)Nc3c(Cl)c[n+]([O-])cc3Cl)ccc12`, for which, in the data set on Mus musculus [4], the inhibition in vivo at 10 mg/kg turned out to be 8%. This compound also gave a Ki on Phosphodiesterase 4 [1] of 30 nM. The 50% inhibitory concentration (IC50) against Phosphodiesterase 4 [3] worked out at 20 nM.

Compound `Cc1cn(CCC2CCCCC2)c2cc(C(=O)Nc3c(Cl)c[n+]([O-])cc3Cl)ccc12` gave a Ki at Phosphodiesterase 4 [1] of 12 nM. Besides, the median effective dose (ED50) with Mus musculus [5] is 7.4 mg/kg; in the data set on Canis familiaris [6], 1 mg/kg. For the same compound, at Phosphodiesterase 4 [3], the 50% inhibitory concentration (IC50) is recorded as 4.1 nM.

For `Cc1cn(Cc2ccccc2)c2cc(C(=O)Nc3c(Cl)c[n+]([O-])cc3Cl)ccc12`, the Tmax in data set [7] came out at 0.25 h. Moreover, the Vd in [8] came to 0.9 L/kg. The same compound returned an inhibition constant (Ki) at Phosphodiesterase 4 [1] of 60 nM. Besides, the AUC in data set [9] was determined as 669 ng·h/mL; in [11], 2020 ng·h/mL. Also, in data set [10], the Cmax stood at 393 ng/mL. For the same compound, the figures for the ED50 with Mus musculus [5] and in the data set with Canis familiaris [16] were 20 mg/kg and 3 mg/kg, respectively. The clearance in data set [12] was 8.33 mL/min/kg. The compound further had a bioavailability in [13] of 33%. For the same compound, the half-life in data set [14] was 5.1 h; in data set [15], 3.7 h. Further, the IC50 against Phosphodiesterase 4 [3] amounted to 8 nM.

Take `Cc1cn(Cc2ccc3c(c2)OCO3)c2cc(C(=O)Nc3c(Cl)c[n+]([O-])cc3Cl)ccc12`: on Phosphodiesterase 4 [1], the inhibitory constant (Ki) was determined as 86 nM. Besides, the inhibition in vivo at 50 mg/kg in the data set with Mus musculus [2] stood at 40%. At Phosphodiesterase 4 [3], the IC50 came to 24 nM.

`Cc1cn(CC(C)C)c2cc(C(=O)Nc3c(Cl)c[n+]([O-])cc3Cl)ccc12` showed an inhibition in vivo at 10 mg/kg in the data set with Mus musculus [4] of 0%. At Phosphodiesterase 4 [1], this compound came in with a Ki of 116 nM. For the same compound, the half-maximal inhibitory concentration (IC50) against Phosphodiesterase 4 [3] was 38 nM.

Compound `Cc1cn(Cc2ccc(Cl)cc2)c2cc(C(=O)Nc3c(Cl)c[n+]([O-])cc3Cl)ccc12` registered a Ki at Phosphodiesterase 4 [1] of 71 nM. At 50 mg/kg the inhibition in vivo in the data set on Mus musculus [2] was 10%. For the same compound, on Phosphodiesterase 4 [3], the IC50 turned out to be 12 nM.

With `Cc1noc(C)c1Cn1cc(C)c2ccc(C(=O)Nc3c(Cl)c[n+]([O-])cc3Cl)cc21`, the inhibition constant Ki at Phosphodiesterase 4 [1] is on record as 225 nM. In the data set on Mus musculus [2], this compound had an inhibition in vivo at 50 mg/kg of 40%. The compound also yielded an IC50 at Phosphodiesterase 4 [3] of 500 nM.

In the data set on Mus musculus [4], `Cc1cn(CCCCc2ccccc2)c2cc(C(=O)Nc3c(Cl)c[n+]([O-])cc3Cl)ccc12` returned an inhibition in vivo at 10 mg/kg of 53%. Besides, the inhibition constant (Ki) on Phosphodiesterase 4 [1] amounted to 135 nM. Also, the IC50 on Phosphodiesterase 4 [3] was found to be 46 nM.

`Cc1cn(CC2CCCCC2)c2cc(C(=O)Nc3c(Cl)cncc3Cl)ccc12` registered an inhibition in vivo at 50 mg/kg in the data set with Mus musculus [2] of 0%.

For `Cc1cn(Cc2ccccc2)c2cc(C(=O)Nc3c(Cl)cncc3Cl)ccc12`, the inhibition in vivo at 50 mg/kg with Mus musculus [2] came to 0%.

For the compound `Cc1cn(CC2CCCCC2)c2cc(C(=O)Nc3c(Cl)c[n+]([O-])cc3Cl)ccc12`, in data set [7], the time to peak (Tmax) stood at 1 h. Moreover, the Vd in [8] came out at 1.7 L/kg. The same compound came in with a Ki at Phosphodiesterase 4 [1] of 86 nM. The AUC in data set [9] was determined as 3140 ng·h/mL; in [11], 3260 ng·h/mL. Besides, the Cmax in [10] was found to be 439 ng/mL. Besides, the results for the Change with Rattus norvegicus [17], in the data set on Rattus norvegicus [18] and in the data set with Rattus norvegicus [25] were -13%, -5% and -7%, respectively. This compound had an inhibition in vivo at 30 mg/kg in the data set on Rattus norvegicus [19] of 77%. Besides, the results for the ED50 with Mus musculus [5] and in the data set on Canis familiaris [16] were 7.1 mg/kg and over 0.8 mg/kg, respectively. In addition, the clearance in data set [12] is 5 mL/min/kg. In [13], this compound had a bioavailability of 96%. In the data set on Rattus norvegicus [20], this compound returned an inhibition in vivo at 3 mg/kg of 25%. The half-life in data set [14] is 3.6 h; in data set [15] it was 2.5 h. Also, the “Mean AUC” value in the data set with Rattus norvegicus [21] is on record as 3.7; in the data set with Rattus norvegicus [22], 3.3; in the data set on Rattus norvegicus [24], 1.1. In addition, in the data set with Rattus norvegicus [23], the inhibition in vivo at 10 mg/kg was 33%. At Phosphodiesterase 4 [3], the IC50 is listed as 30 nM.

Take `Cc1cn(Cc2nccn2Cc2ccccc2)c2cc(C(=O)Nc3c(Cl)c[n+]([O-])cc3Cl)ccc12`: on Phosphodiesterase 4 [1], the Ki is listed as 393 nM. In the data set with Mus musculus [2], this compound showed an inhibition in vivo at 50 mg/kg of 38%. The 50% inhibitory concentration (IC50) on Phosphodiesterase 4 [3] is recorded as 420 nM.

The compound `Cc1nc(Cn2cc(C)c3ccc(C(=O)Nc4c(Cl)c[n+]([O-])cc4Cl)cc32)cs1` registered a Ki at Phosphodiesterase 4 [1] of 64 nM. This compound also yielded an inhibition in vivo at 50 mg/kg in the data set with Mus musculus [2] of 52%. Further, the concentration for half-maximal inhibition (IC50) against Phosphodiesterase 4 [3] is 80 nM.

`Cc1cn(Cc2ccc3ccccc3c2)c2cc(C(=O)Nc3c(Cl)c[n+]([O-])cc3Cl)ccc12` showed an inhibition constant (Ki) at Phosphodiesterase 4 [1] of 51 nM. At Phosphodiesterase 4 [3], this compound had a half-inhibitory concentration (IC50) of 22 nM.

As for `Cc1cn(CCCC2CCCCC2)c2cc(C(=O)Nc3c(Cl)c[n+]([O-])cc3Cl)ccc12`, on Phosphodiesterase 4 [1], the Ki is 67 nM. This compound gave an inhibition in vivo at 50 mg/kg with Mus musculus [2] of 47%. At Phosphodiesterase 4 [3], this compound had a concentration for half-maximal inhibition (IC50) of 16 nM.

The compound `Cc1cn(Cc2ccc(C(F)(F)F)cc2)c2cc(C(=O)Nc3c(Cl)c[n+]([O-])cc3Cl)ccc12` had an inhibition constant (Ki) at Phosphodiesterase 4 [1] of 67 nM. Moreover, the median effective dose (ED50) in the data set on Mus musculus [5] is 10 mg/kg. The same compound showed an IC50 against Phosphodiesterase 4 [3] of 14 nM.

Take `COc1ccc(C(=O)Nc2c(Cl)cncc2Cl)cc1OC1CCCC1`: the median effective dose (ED50) is 3.1 mg/kg with Mus musculus [5] and 0.6 mg/kg in the data set with Canis familiaris [26].

In the case of `COc1ccc(C2CNC(=O)C2)cc1OC1CCCC1` (configuration not stated) [ROLIPRAM], the median effective dose (ED50) in the data set with Canis familiaris [27] is 0.03 mg/kg; with Mus musculus [5] it was 8.2 mg/kg.
